Read-outs that look alike come from different tables or passages of the source.
Experiments:
NCIH460 (lung) cells = assay: Anti-cancer screen (MTT), NCIH460; type: cell-based; conditions: Homo sapiens; for GI50: read-out: Cell growth inhibition NCIH460 (Lung) GI50; for LC50: read-out: Cell growth inhibition NCIH460 (Lung) LC50; for IC (TGI): read-out: Cell growth inhibition NCIH460 (Lung) TGI
Procedure, shortened: (§1)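 Cells in DMEM with 10% FBS were seeded for 24 h, then exposed for 48 h to compounds at 0.01, 0.1, 1, 10 and 100 μM final, in triplicate. Viability was read by MTT (3 h, A570 after DMSO solubilisation), referenced to a pre-dosing T0 plate, with SAHA as standard.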

HCT 116 (colon) cells = assay: Anti-cancer screen (MTT), HCT 116; type: cell-based; conditions: Homo sapiens; for GI50: read-out: Cell growth inhibition HCT116 (Colon) GI50; for CC50: read-out: Cell growth inhibition HCT116 (Colon) LC50; for IC (TGI): read-out: Cell growth inhibition HCT116 (Colon) TGI
Procedure, shortened: as §1

U251 (glioma) cells = assay: Anti-cancer screen (MTT), U251; type: cell-based; conditions: Homo sapiens; for GI50: read-out: Cell growth inhibition U251 (Glioma) GI50; for LC50 (concentration giving 50% net cell kill relative to the time-zero cell count): read-out: Cell growth inhibition U251 (Glioma) LC50; for IC (TGI): read-out: Cell growth inhibition U251 (Glioma) TGI
Procedure, shortened: as §1

[1] = test system: NCIH460, HCT116 and U251 cells; assay: Anti-cancer screen, mean GI50 over cell lines; type: cell-based; conditions: read-out: Cell growth inhibition Mean GI50
Procedure, shortened: as §1

[2] = test system: HDAC (Mouse Liver Extract); assay: HDAC inhibition assay using Boc-Lys(Ac)-AMC substrate; type: biochemical; conditions: mouse liver enzyme
Procedure, shortened: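 Released AMC measured at 360 nm excitation, 460 nm emission after 15-30 min trypsin development at 37° C. Preceding deacetylation: mouse liver extract with acetylated-lysine AMC substrate, 30 min at 37° C after 5-min preincubation; blanks were buffer alone and substrate alone.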

recombinant HDAC1 enzyme = recombinant HDAC1 enzyme (Homo sapiens (Human), UniProt Q13547); assay: HDAC1 inhibitory activity (isoform selectivity); type: biochemical; conditions: read-out: HDAC1 inhibition (IC50)
Method: The assay was carried out, as previously described using recombinant HDAC1 enzyme (BIOMOL, USA) and following manufacturer's instructions.

Acetylated histone (H3) = assay: Histone (H3) acetylation, sandwich ELISA in HCT116 lysate; type: cell-based; conditions: HCT116, 4 hours
Method: (§2) Acetylated histone (H3), acetylated Tubulin and p21 levels were detected in cell lysate by sandwich ELISA method (Cell Signaling Technology, USA, Cat No: 7232, 7204 & 7167 respectively) by following manufacturer's instructions. Briefly, colon cancer cells (HCT116. 10,000/well) were incubated with test compound (1 and 10 μM) or medium (control) for 4 hours at 37° C. in CO2 incubator. The incubation lasted 18 hours for p21 induction. After incubation, cell lysates were prepared in cell lysis buffer by sonication on ice. The lysates were collected after centrifugation and subjected to ELISA test procedure. 100 μL of each diluted cell lysate in dilution buffer (1:1) was added to appropriate capture antibody coated microwells and incubated overnight at 4° C. After washing, 100 μL of detection antibody was added for 1 hour at 37° C. After second washing, 100 μL of HRP-linked secondary antibody was added for 30 min at 37° C. Finally, after appropriate washing, 100 μL of TMB substrate was added for 10 min at 37° C. followed by 100 μL of stop solution. The absorbance of individual wells was read using a spectrophotometer at 450 nm (A450).

acetylated Tubulin = assay: Tubulin acetylation, sandwich ELISA in HCT116 lysate; type: cell-based; conditions: HCT116, 4 hours
Method: as §2

p21 = p21 induction, sandwich ELISA in HCT116 lysate; type: cell-based; conditions: HCT116, 18 hours
Method: as §2

[3] = NCI-H460, NCIH460, 48 hours, MTT

Chain of recombinant HDAC1 enzyme (Q13547 whole entry, canonical isoform): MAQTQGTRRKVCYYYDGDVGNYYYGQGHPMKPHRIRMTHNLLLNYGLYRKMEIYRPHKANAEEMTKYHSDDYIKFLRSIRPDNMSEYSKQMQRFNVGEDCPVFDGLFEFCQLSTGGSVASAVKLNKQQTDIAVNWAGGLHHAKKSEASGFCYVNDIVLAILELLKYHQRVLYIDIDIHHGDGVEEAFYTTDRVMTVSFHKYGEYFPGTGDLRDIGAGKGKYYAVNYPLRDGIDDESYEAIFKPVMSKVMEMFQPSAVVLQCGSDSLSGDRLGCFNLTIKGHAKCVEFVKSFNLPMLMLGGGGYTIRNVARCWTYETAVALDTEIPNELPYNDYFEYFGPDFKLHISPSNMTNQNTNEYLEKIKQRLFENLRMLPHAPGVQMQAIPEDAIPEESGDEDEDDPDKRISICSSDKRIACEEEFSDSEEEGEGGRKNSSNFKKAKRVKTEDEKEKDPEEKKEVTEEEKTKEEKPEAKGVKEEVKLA

Structure (SMILES) | GI50 (NCIH460 (lung) cells; [3]) | LC50 (NCIH460 (lung) cells; [3]) | IC (TGI) (NCIH460 (lung) cells; [3]) | GI50 (HCT 116 (colon) cells; HCT-116, HCT116, 48 hours, MTT) | CC50 (HCT 116 (colon) cells; HCT-116, HCT116, 48 hours, MTT) | IC (TGI) (HCT 116 (colon) cells; HCT-116, HCT116, 48 hours, MTT) | GI50 (U251 (glioma) cells; U-251, U251, 48 hours, MTT) | LC50 (concentration giving 50% net cell kill relative to the time-zero cell count) (U251 (glioma) cells; U-251, U251, 48 hours, MTT) | IC (TGI) (U251 (glioma) cells; U-251, U251, 48 hours, MTT) | GI50 ([1]; mean over cell lines) | HDAC inhibition % (1 μM) [2] | HDAC inhibition % (10 μM) [2] | IC50 [2] | IC50 (recombinant HDAC1 enzyme) | also measured
COc1ccc(/C=C(/C(=O)NCc2ccc(C(=O)Nc3ccccc3N)cc2)c2ccccc2F)cc1OC [Compound 28, N-(2-Aminophenyl)-4-((3-(3,4-dimethoxyphenyl)-2-(2-fluorophenyl)acrylamido)methyl)benzamide] | 1 µM | > 100 µM | > 100 µM | 0.1 µM | > 100 µM | > 100 µM | 5.5 µM | > 100 µM | > 100 µM | 2.2 µM | 41.3% | 65.6% | 9.5 µM | 0.036 µM | H3 acetylation (Fold increase) (Acetylated histone (H3); 1 μM): 1.1 Fold increase; H3 acetylation (Fold increase) (Acetylated histone (H3); 10 μM): 5.6 Fold increase; Tubulin acetylation (Fold increase) (acetylated Tubulin; 1 μM): 1.9 Fold increase; Tubulin acetylation (Fold increase) (acetylated Tubulin; 10 μM): 6.2 Fold increase; P21 induction (Fold increase) (p21; 1 μM): 1.5 Fold increase; P21 induction (Fold increase) (p21; 10 μM): 2.5 Fold increase
COc1ccc(/C=C(/C(=O)NCc2ccc(C(=O)Nc3ccccc3N)cc2)c2ccc(C)cc2)cc1OC [Compound 29, N-(2-Aminophenyl)-4-((3-(3,4-dimethoxyphenyl)-2-(4-methylphenyl)acrylamido)methyl)benzamide] | 3.1 µM | > 100 µM | > 100 µM | 0.3 µM | > 100 µM | 40 µM | 11 µM | > 100 µM | 45 µM | 4.8 µM | 34.2% | 52.8% | 34 µM | 0.057 µM | –
COc1ccc(/C=C(/C(=O)NCc2ccc(C(=O)Nc3ccccc3N)cc2)c2cccc(F)c2)cc1OC [Compound 32, N-(2-Aminophenyl)-4-((3-(3,4-dimethoxyphenyl)-2-(3-fluorophenyl)acrylamido)methyl)benzamide] | 1.8 µM | > 100 µM | > 100 µM | – | > 100 µM | 100 µM | 2.1 µM | > 100 µM | 48 µM | 1.3 µM | 39.9% | 61.2% | 4.8 µM | 0.052 µM | –
CSc1ccc(/C=C(/C(=O)NCc2ccc(C(=O)NO)cc2)c2cccnc2)cc1 [Compound 55, 4-((2-(Pyridin-3-yl)-3-(4-methylthiophenyl)acrylamido)methyl)-N-hydroxybenzamide] | 1 µM | > 100 µM | 39 µM | 1.1 µM | 48 µM | 6.2 µM | 0.2 µM | 56 µM | 0.4 µM | 0.8 µM | 85.7% | 95.1% | 0.02 µM | – | H3 acetylation (Fold increase) (Acetylated histone (H3); 1 μM): 4.2 Fold increase; H3 acetylation (Fold increase) (Acetylated histone (H3); 10 μM): 7.7 Fold increase; Tubulin acetylation (Fold increase) (acetylated Tubulin; 1 μM): 10.4 Fold increase; Tubulin acetylation (Fold increase) (acetylated Tubulin; 10 μM): 11 Fold increase; P21 induction (Fold increase) (p21; 1 μM): 1.3 Fold increase; P21 induction (Fold increase) (p21; 10 μM): 2.5 Fold increase
CSc1ccc(/C=C(/C(=O)NCCCCCC(=O)NO)c2ccccc2Cl)cc1 [Compound 95, 6-(2-(2-Chlorophenyl)-3-(4-methylthiophenyl)acrylamido)-N-hydroxy hexanamide] | 6 µM | 72 µM | 40 µM | 3 µM | 66 µM | 14 µM | 0.1 µM | 64 µM | 11 µM | 3 µM | 60.8% | 92.0% | 0.01 µM | – | –
CSc1ccc(/C=C(/C(=O)NCCCCCC(=O)NO)c2ccc(C)cc2)cc1 [Compound 96, 6-(2-(4-Methylphenyl)-3-(4-methylthiophenyl)acrylamido)-N-hydroxy hexanamide] | – | – | – | – | – | – | – | – | – | – | 84.1% | 98.5% | 0.01 µM | – | GI50 (NCIH460 (lung) cells; NCI-H460, 48 h): 8 µM; LC50 (NCIH460 (lung) cells; NCI-H460, 48 h): 60 µM; IC (TGI) (NCIH460 (lung) cells; NCI-H460, 48 h): 21 µM; GI50 (HCT 116 (colon) cells; HCT-116, 48 h): 6 µM; CC50 (HCT 116 (colon) cells; HCT-116, 48 h): > 100 µM; IC (TGI) (HCT 116 (colon) cells; HCT-116, 48 h): 27 µM; GI50 (U251 (glioma) cells; U-251, 48 h): 8 µM; LC50 (concentration giving 50% net cell kill relative to the time-zero cell count) (U251 (glioma) cells; U-251, 48 h): 60 µM; IC (TGI) (U251 (glioma) cells; U-251, 48 h): 22 µM; GI50 [1]: 7.3 µM
CS(=O)(=O)c1ccc(/C=C(/C(=O)NCCCCCC(=O)Nc2ccccc2N)c2ccc(F)cc2)cc1 [Compound 97, N-(2-Aminophenyl)-6-(2-(4-fluorophenyl)-3-(4-methylsulfonyllphenyl)acrylamido)hexanamide] | 56 µM | > 100 µM | > 100 µM | 6.8 µM | > 100 µM | 85 µM | 6.5 µM | 87 µM | 44 µM | 23.1 µM | 10.2% | 34.2% | – | – | –
O=C(CCCCCNC(=O)NC(=O)/C(=C/c1ccc(F)c(F)c1)c1ccc(F)cc1)NO [Compound 100] | 40 µM | 96 µM | 70 µM | 8.8 µM | 82 µM | 46 µM | 28 µM | 84 µM | 62 µM | 25.6 µM | 77.1% | 96.3% | – | – | –
O=C(CCCCCNC(=O)NC(=O)/C(=C/c1ccccc1)c1ccccc1)NO [Compound 101] | 10 µM | 82 µM | 45 µM | 2.9 µM | 13.2 µM | 7.6 µM | 7 µM | 76 µM | 35 µM | 6.6 µM | 89.5% | 97.1% | 0.07 µM | – | –

Source: patent US8476255B2, “Histone deacetylase inhibitors” (Orchid Chemicals & Pharmaceuticals Limited, priority 2007, dated 2013)
